The values that follow come from patent US10919885B2, “Compounds and uses thereof” (Yumanity Therapeutics, Inc., priority 2018, dated 2021).

Where only a bound is given, the exact number is not on record here.

Sequence of human SCD1 (O00767 whole entry): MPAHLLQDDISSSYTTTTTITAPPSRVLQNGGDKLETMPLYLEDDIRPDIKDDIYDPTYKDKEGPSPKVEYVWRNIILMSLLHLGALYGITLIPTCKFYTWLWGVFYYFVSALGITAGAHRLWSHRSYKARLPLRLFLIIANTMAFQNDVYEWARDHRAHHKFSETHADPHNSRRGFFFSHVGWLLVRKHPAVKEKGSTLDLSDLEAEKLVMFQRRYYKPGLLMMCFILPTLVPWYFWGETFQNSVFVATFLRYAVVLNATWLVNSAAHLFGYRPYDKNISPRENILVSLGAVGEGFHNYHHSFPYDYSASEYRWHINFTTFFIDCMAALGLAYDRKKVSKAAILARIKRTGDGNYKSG
Sequence of human SCD5 (Q86SK9 whole entry): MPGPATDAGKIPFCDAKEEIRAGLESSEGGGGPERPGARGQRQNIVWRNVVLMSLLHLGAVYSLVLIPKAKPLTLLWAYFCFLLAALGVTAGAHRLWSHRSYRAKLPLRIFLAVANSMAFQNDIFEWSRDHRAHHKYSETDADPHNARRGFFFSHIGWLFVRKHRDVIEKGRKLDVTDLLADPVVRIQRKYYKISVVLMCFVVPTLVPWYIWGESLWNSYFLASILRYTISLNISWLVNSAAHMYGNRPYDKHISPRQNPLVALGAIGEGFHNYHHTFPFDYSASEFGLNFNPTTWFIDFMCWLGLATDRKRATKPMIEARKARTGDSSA

The first assay deals with human SCD1 (Homo sapiens (Human), UniProt O00767). In words: Yeast growth assay, strain expressing human SCD1 as the sole desaturase (reduced growth as surrogate for SCD inhibition). The format is cell-based. Conditions: yeast with OLE1 deleted expressing human SCD1 from a plasmid; growth read as OD600 after 40 h at 30° C.; top drug concentration 33.3 μM. Summed up:
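Yeast lacking OLE1 depend on plasmid-borne human SCD1 or SCD5 and are tested in SD-Ura medium without oleic/palmitoleic acid or Tween.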
Regarding `Cc1nn(C)c(C)c1NC(=O)c1cc(-c2ccco2)on1` [Compound 1], the 50% inhibitory concentration (IC50) (commonly the concentration at which inhibition is half-maximal) is more than 45 µM. The compound `Cc1nn(Cc2ccccc2)c(C)c1NC(=O)c1cc(-c2ccco2)on1` [Compound 2] yielded an IC50 of 32.8 µM. In the case of `Cc1nn(Cc2ccc(Cl)c(Cl)c2)c(C)c1NC(=O)c1cc(-c2ccco2)on1` [Compound 3, N-(1-(3,4-dichlorobenzyl)-3,5-dimethyl-1H-pyrazol-4-yl)-5-(furan-2-yl)isoxazole-3-carboxamide], the IC50 is more than 45 µM. In the case of `CN(Cc1cccc(F)c1)C(=O)c1cc(-c2ccccc2)on1` [Compound 9], the IC50 is more than 45 µM. Compound `Cn1cc(NC(=O)c2cc(-c3ccco3)on2)cn1` [Compound 10] gave an IC50 of more than 45 µM.

Compound `CC(C)(C)OC(=O)n1cc(NC(=O)c2cc(-c3ccco3)on2)cn1` [Compound 12] returned a 50% inhibitory concentration (IC50) of more than 45 µM.

`O=C(Nc1cnn(Cc2ccc(Cl)cc2)c1)c1cc(-c2ccco2)on1` [Compound 15]: the IC50 was more than 45 µM. Take `O=C(Nc1cnn(Cc2ccc(C(F)(F)F)cc2)c1)c1cc(-c2ccco2)on1` [Compound 16]: the IC50 is more than 45 µM. On the same count and under the same terms, as for `Cc1nn(Cc2ccc(Cl)c(Cl)c2)cc1NC(=O)c1cc(-c2ccco2)on1` [Compound 17, N-(1-(3,4-dichlorobenzyl)-3-methyl-1H-pyrazol-4-yl)-5-(furan-2-yl)isoxazole-3-carboxamide], the figure is more than 45 µM; as for `Cc1c(NC(=O)c2cc(-c3ccco3)on2)cnn1Cc1ccc(Cl)c(Cl)c1` [Compound 21], more than 45 µM; as for `O=C(Nc1cnn(CCc2ccccc2)c1)c1cc(-c2ccco2)on1` [Compound 24], more than 45 µM. On the same count and under the same terms, as for `Cn1nc(Cc2ccc(Cl)c(Cl)c2)cc1NC(=O)c1cc(-c2ccco2)on1` [Compound 27], the figure is more than 45 µM; as for `COc1ccc([C@@H]2CCCN2C(=O)c2cc(-c3ccc4c(c3)OCO4)on2)cc1` [Compound 359], more than 45 µM; as for `COc1ccc([C@H]2CCCN2C(=O)c2cc(-c3ccc4c(c3)OCO4)on2)cc1` [Compound 360], more than 45 µM. Same read-out and setting: next, `COc1ccccc1C1CCCN1C(=O)c1cc(-c2ccc3c(c2)OCO3)on1` (centres unmarked) [Compound 364]: more than 45 µM; `COc1cccc(C2CCCN2C(=O)c2cc(-c3ccc4c(c3)OCO4)on2)c1` (centres unmarked) [Compound 365]: more than 45 µM.

Consider `O=C(c1cc(-c2ccc3c(c2)OCO3)on1)N1CCCC1c1cccc(F)c1` (centres unmarked) [Compound 367], for which the IC50 is more than 45 µM.

`O=C(c1cc(-c2ccc3c(c2)OCO3)on1)N1CCCC1c1ccc(F)cc1` (centres unmarked) [Compound 368] had an IC50 of more than 45 µM. The same measure, in the same setting: as for `C[C@H]1CCCN1C(=O)c1cc(-c2ccc3c(c2)OCO3)on1` [Compound 369], the figure is more than 45 µM. On the same count and under the same terms, next, `C[C@@H]1CCCN1C(=O)c1cc(-c2ccc3c(c2)OCO3)on1` [Compound 370]: more than 45 µM. The same measure, in the same setting: as for `O=C(c1cc(-c2ccc3c(c2)OCO3)on1)N1CCC[C@@H]1C(F)(F)F` [Compound 372], the figure is more than 45 µM; as for `O=C(c1cc(-c2ccc3c(c2)OCO3)on1)N1CCC[C@H]1C(F)(F)F` [Compound 373], more than 45 µM; as for `COc1ccc(C2CCCN2C(=O)c2cc(-c3cccc(OC)c3)on2)cc1` (centres unmarked) [Compound 375], more than 45 µM.

For `COc1ccc(C2CCCN2C(=O)c2cc(-c3ccc(OC(F)(F)F)cc3)on2)cc1` (centres unmarked) [Compound 380], the IC50 was more than 45 µM.

For the compound `COc1ccc(C2CCCN2C(=O)c2cc(-c3ccc(F)c(OC)c3)on2)cc1` (centres unmarked) [Compound 383], the IC50 was found to be 36.6 µM. The same measure, in the same setting: next, `O=C(c1cc(-c2ccccc2)on1)N1CCC[C@@H]1c1ccccc1` [Compound 385]: more than 45 µM; `O=C(c1cc(-c2ccccc2)on1)N1CCC[C@H]1c1ccccc1` [Compound 386]: 30.5 µM.

`O=C(c1cc(-c2ccccc2)on1)N1CCCC1c1ccccc1` (centres unmarked) [Compound 387]: the half-maximal inhibitory concentration (IC50) was more than 45 µM. `O=C(c1cc(-c2ccc3c(c2)OCO3)on1)N1CCCC1c1cccc(Br)c1` (centres unmarked) [Compound 388] came in with an IC50 of more than 45 µM. Same read-out and setting: as for `O=C(c1cc(-c2ccc3c(c2)OCO3)on1)N1CCCC1c1ccc(Br)cc1` (centres unmarked) [Compound 389], the figure is more than 45 µM. On the same count and under the same terms, as for `O=C(c1cc(-c2ccc3c(c2)OCO3)on1)N1CCCC1c1ccccc1Br` (centres unmarked) [Compound 390], the figure is more than 45 µM; as for `COc1ccc(C2CCCN2C(=O)c2cc(-c3ccc4c(c3)OC(F)(F)O4)on2)cc1` (centres unmarked) [Compound 393], more than 45 µM.

In the case of `COc1ccc(C2CCCN2C(=O)c2cc(-c3ccc4c(C)nn(C)c4c3)on2)cc1` (centres unmarked) [Compound 394], the 50% inhibitory concentration (IC50) is more than 45 µM. On the same count and under the same terms, as for `N#Cc1ccc(C2CCCN2C(=O)c2cc(-c3ccc4c(c3)OCO4)on2)cc1` (centres unmarked) [Compound 395], the figure is more than 45 µM; as for `N#Cc1cccc(C2CCCN2C(=O)c2cc(-c3ccc4c(c3)OCO4)on2)c1` (centres unmarked) [Compound 396], 38.9 µM.

As to `O=C(c1cc(-c2ccc3c(c2)OCO3)on1)N1CCOCC1c1ccccc1` (centres unmarked) [Compound 397], the IC50 is more than 45 µM. With `N#Cc1ccccc1-c1cc(C(=O)N2CCC[C@H]2c2ccccc2)no1` [Compound 402], the IC50 is more than 45 µM. On the same count and under the same terms, as for `N#Cc1cccc(-c2cc(C(=O)N3CCC[C@H]3c3ccccc3)no2)c1` [Compound 403], the figure is 31.1 µM; as for `O=C(c1cc(-c2ccc3c(c2)OCO3)on1)N1CCCC1C1CC1` (centres unmarked) [Compound 407], more than 45 µM; as for `O=C(c1cc(-c2ccccn2)on1)N1CCC[C@H]1c1ccccc1` [Compound 408], more than 45 µM.

As for `COc1ccc(-c2cc(C(=O)N3CCC[C@H]3c3ccccc3)no2)cn1` [Compound 410], the 50% inhibitory concentration (IC50) was determined as 27.1 µM. On the same count and under the same terms, as for `O=C(c1cc(-c2ccc3c(c2)OCO3)on1)N1CCCC1c1cc(Br)no1` (centres unmarked) [Compound 412], the figure is more than 45 µM. The same measure, in the same setting: as for `O=C(c1cc(-c2ccc3c(c2)OCO3)on1)N1CCCC1C1CCOCC1` (centres unmarked) [Compound 413], the figure is more than 45 µM; as for `COc1ccc(-c2cc(C(=O)N3CCCC3c3ccccc3F)no2)nc1` (centres unmarked) [Compound 415], 40.2 µM; as for `COc1ccc(-c2cc(C(=O)N3CCC[C@H]3c3ccccc3)no2)nc1` [Compound 416], 23.1 µM. The same measure, in the same setting: next, `Cc1nn(C)c2cc(-c3cc(C(=O)N4COCC4c4ccccc4)no3)ccc12` (centres unmarked) [Compound 419]: more than 45 µM; `O=C(c1cc(-c2ccc3c(c2)OCO3)on1)N1C[C@H](F)C[C@H]1c1ccccc1` [Compound 420]: more than 45 µM.

`O=C(c1cc(-c2ccc3c(c2)OCO3)on1)N1CCCC1c1ncco1` (centres unmarked) [Compound 423] returned an IC50 of more than 45 µM. Still for that read-out and setting: as for `O=C(c1cc(-c2ccc3c(c2)OCO3)on1)N1CCC[C@H]1c1ccon1` [Compound 426], the figure is more than 45 µM; as for `O=C(c1cc(-c2ccc3c(c2)OCO3)on1)N1C[C@@H](F)C[C@H]1c1ccccc1` [Compound 427], 30 µM; as for `Cn1cc(-c2cc(C(=O)N3CCC[C@H]3c3ccccc3)no2)ccc1=O` [Compound 429], 36.3 µM. Still for that read-out and setting: next, `N#Cc1ccc(-c2cc(C(=O)N3CCC[C@H]3c3ccccc3)no2)nc1` [Compound 435]: more than 45 µM; `Cn1c(=O)oc2ccc(-c3cc(C(=O)N4CCC[C@H]4c4ccccc4)no3)cc21` [Compound 444]: more than 45 µM; `Cn1ccnc1C1CCCN1C(=O)c1cc(-c2ccc3c(c2)OCO3)on1` (centres unmarked) [Compound 446]: more than 45 µM. The same measure, in the same setting: next, `COc1ccc(C2CCCN2C(=O)c2cc(-c3ccc4c(c3)OCO4)on2)c(F)c1` (centres unmarked) [Compound 452]: more than 45 µM. With `COc1cccc(F)c1C1CCCN1C(=O)c1cc(-c2ccc3c(c2)OCO3)on1` (centres unmarked) [Compound 453], the IC50 was more than 45 µM.

Turning to `Cn1nccc1-c1ccc2c(C(=O)N3CCC[C@H]3c3ccccc3)noc2c1` [Compound 454], the 50% inhibitory concentration (IC50) was more than 45 µM. The same measure, in the same setting: as for `O=C(c1cc(-c2ccc3c(c2)OCO3)on1)N1CCCC1c1ccnc(Br)c1F` (centres unmarked) [Compound 459], the figure is more than 45 µM; as for `O=C(c1cc(-c2ccc3c(c2)OCO3)on1)N1CCCC1c1ccncc1F` (centres unmarked) [Compound 460], more than 45 µM; as for `O=C(c1cc(-c2ccc3c(c2)OCO3)on1)N1CCCC1c1nc2ccccc2o1` (centres unmarked) [Compound 461], more than 45 µM. The same measure, in the same setting: next, `O=C(c1cc(N2CCOCC2)on1)N1CCC[C@H]1c1ccccc1` [Compound 463]: more than 45 µM; “N-(1-(3-fluorobenzyl)-1H-pyrazol-4-yl)-5-(pyrimidin-4-yl)isoxazole-3-carboxamide [Compound 90]”: 1.1 µM.

Another assay addresses human SCD5 (Homo sapiens (Human), UniProt Q86SK9). The assay can be described thus: Yeast growth assay, strain expressing human SCD5 as the sole desaturase (reduced growth as surrogate for SCD inhibition). The assay is classed as cell-based. To be noted: yeast with OLE1 deleted expressing human SCD5 from a plasmid; growth read as OD600 after 40 h at 30° C.; top drug concentration 33.3 μM. The protocol: Strains expressing SCD1 or SCD5 as the sole desaturase, the human SCD1 and SCD5 genes were used to evaluate inhibition of SCD1/SCD5 using reduced growth as a surrogate for SCD inhibition. These yeast strains express human SCD1 or SCD5 from a plasmid harbored in a strain in which the yeast OLE1 gene is deleted.
All compound profiling experiments were performed using the same basic protocol. Yeast were cultured using standard techniques in complete synthetic media lacking uracil and containing yeast nitrogen base supplemented with 2% (w/v) glucose (SD-Ura) Starter cultures were inoculated in 3 mL SD-Ura media containing 0.01% tween and 0.2 mM palmitoleic and oleic acid. Cultures were incubated overnight in a 30° C. shaker incubator (225 rpm). Saturated morning cultures were centrifuged, washed in SD-Ura media lacking TWEEN-20 and fatty acids, and then diluted 1:20 in fresh SD-Ura media also lacking TWEEN-20 and fatty acids.
Compound administration was performed in two separate steps. First, 15 μL of SD-Ura was dispensed into clear 384-well assay plates using a MULTIDROP™ Combi reagent dispenser. […] The cultures described above were centrifuged and washed with media lacking TWEEN-20 or oleic and palmitoleic acids.
After yeast delivery, assay plates were incubated under humidified conditions at 30° C. for 40 h. Yeast growth was monitored by reading the OD600 of each well using a microplate reader (Perkin Elmer EnVision™).
`Cc1nn(C)c(C)c1NC(=O)c1cc(-c2ccco2)on1` [Compound 1] yielded an IC50 of more than 45 µM. The same measure, in the same setting: next, `Cc1nn(Cc2ccccc2)c(C)c1NC(=O)c1cc(-c2ccco2)on1` [Compound 2]: 38.6 µM; `Cc1nn(Cc2ccc(Cl)c(Cl)c2)c(C)c1NC(=O)c1cc(-c2ccco2)on1` [Compound 3, N-(1-(3,4-dichlorobenzyl)-3,5-dimethyl-1H-pyrazol-4-yl)-5-(furan-2-yl)isoxazole-3-carboxamide]: 7.15 µM.

In the case of `CN(Cc1cccc(F)c1)C(=O)c1cc(-c2ccccc2)on1` [Compound 9], the half-maximal inhibitory concentration (IC50) was found to be 15.7 µM. Still for that read-out and setting: as for `Cn1cc(NC(=O)c2cc(-c3ccco3)on2)cn1` [Compound 10], the figure is more than 45 µM. Turning to `CC(C)(C)OC(=O)n1cc(NC(=O)c2cc(-c3ccco3)on2)cn1` [Compound 12], the IC50 was more than 45 µM.

In turn, `O=C(Nc1cnn(Cc2ccc(Cl)cc2)c1)c1cc(-c2ccco2)on1` [Compound 15] had an IC50 of more than 45 µM. Compound `O=C(Nc1cnn(Cc2ccc(C(F)(F)F)cc2)c1)c1cc(-c2ccco2)on1` [Compound 16] displayed an IC50 of more than 45 µM.

With `Cc1nn(Cc2ccc(Cl)c(Cl)c2)cc1NC(=O)c1cc(-c2ccco2)on1` [Compound 17, N-(1-(3,4-dichlorobenzyl)-3-methyl-1H-pyrazol-4-yl)-5-(furan-2-yl)isoxazole-3-carboxamide], the IC50 is 4.87 µM.

The compound `Cc1c(NC(=O)c2cc(-c3ccco3)on2)cnn1Cc1ccc(Cl)c(Cl)c1` [Compound 21] returned an IC50 of more than 45 µM. On the same count and under the same terms, as for `O=C(Nc1cnn(CCc2ccccc2)c1)c1cc(-c2ccco2)on1` [Compound 24], the figure is more than 45 µM; as for `Cn1nc(Cc2ccc(Cl)c(Cl)c2)cc1NC(=O)c1cc(-c2ccco2)on1` [Compound 27], more than 45 µM.
